# Measurements: patent US8063104B2, “Guanidine derivatives as inhibitors of DDAH” (UCL Business PLC, priority 2004, dated 2011)
# “And” between values parts separate entries of the source, which are not always exact repeats. Equal entries are not always repeated. Where two headings read alike, the source gives them in different places.
# How the values were obtained:
# rat aortic rings [1] = experiment: Endotoxin-induced hyporeactivity to vasoconstrictors in rat aortic rings; format: cell-based; conditions: endotoxin 0.3 μg/ml, compound 100 μM and 200 μM
# Protocol: Incubation of rat aortic rings with endotoxin (0.3 μg/ml) led to the development of hyporeactivity to vasoconstrictors.
# DDAH = molecular target: T1, DDAH (Rattus norvegicus, UniProt O08557); experiment: DDAH activity assay (rat kidney lysate, [14C]L-NMMA to [14C]citrulline); format: biochemical; conditions: 1 mM compound, [14C]L-NMMA 1 μmol/L, 1 h 37° C.
# T1 construct: Rat kidney was homogenized in PBS; from tissue; host or cells: rat kidney homogenate, high-speed supernatant
# T1 sequence (O08557 2-285 limits assumed): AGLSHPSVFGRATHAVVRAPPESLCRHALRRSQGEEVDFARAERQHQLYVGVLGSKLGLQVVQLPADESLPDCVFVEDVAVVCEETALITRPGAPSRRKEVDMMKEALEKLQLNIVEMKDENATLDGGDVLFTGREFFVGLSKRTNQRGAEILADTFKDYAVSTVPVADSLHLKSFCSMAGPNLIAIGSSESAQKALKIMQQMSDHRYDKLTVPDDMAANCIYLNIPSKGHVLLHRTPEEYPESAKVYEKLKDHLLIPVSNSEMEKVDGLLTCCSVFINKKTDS
# Protocol: Rat kidney was homogenized in PBS containing PMSF 1 mM, leupeptin 5 μg/ml, pepstatin 5 μg/ml, chymostatin 5 μg/ml, and the lysate was centrifuged (4000 rpm. 20 min then supernatant further centrifuged for 40000 rpm, 30 min, 4° C.). The supernatants were analyzed for DDAH activity; [^14[…]) was added to the cell lysates (final volume 100 μl) and incubated for 1 h at 37° C. Dowex resin (0.5 ml) at neutral pH was immediately added to samples to terminate the reaction and bind unmetabolized L-NMMA. [^14C]Citrulline formation was determined by scintillation counting (Hewlett Packard).
# rat aortic rings [2] = experiment: NOx production from endotoxin-treated rat aortic rings in static culture; format: cell-based; conditions: endotoxin 10 μg/ml, compound 500 μM
# Protocol: FIG. 1 is a graph showing the nitrate and nitrite (NOx) production from isolated rat aortic rings in static culture in the presence of either media alone (untreated); media plus 10 μg/ml LPS (LPS) and media plus 10 μg/ml LPS and 500 μM SR257 or SR291. n≧6; *p<0.0001 One Way ANOVA plus Bonferroni post hoc correction;
# Effects of two compounds SR 291 [N^G-(2-methoxyethyl)-L-arginine methyl ester] and SR 257 [N^G-(2-methoxyethyl)-L-arginine]) have been tested in a series of models of endotoxin-induced vascular dysfunction. Treatment of rat aortic vascular rings in static culture with endotoxin (10 μg/ml) led to an increase in generation of nitric oxide (as measured by nitrite and nitrate). This increase in NO was prevented by treatment with 500 μM SR257 or SR291.
# RAW cells = experiment: Cell viability assay (MTT) in RAW cells
# Protocol: RAW cells were treated with DDAH inhibitor compound (0.5 mM) in complete media for 24 h; cells were subsequently assessed for viability by MTT assay. Cell culture media was removed from cells and replaced with 200 μl complete media containing 3-[4,5-Dimethylthiazol-2-yl]-2,5-diphenyltetrazolium bromide (MTT 0.2 mg/ml) for 30 min at 37° C. MTT containing media was removed and 100 ul DMSO was added to solubilize cells; after shaking, plates were read at OD550 nm.
# eNOS = eNOS assay ([14C]arginine conversion); format: biochemical; conditions: eNOS activity
# Protocol: Compounds to be tested were added to NOS assay buffer (HEPES 50 mM pH 7.2, FAD 5 μM, FMN 5 μM, BH4 10 μM, NADPH 1 mM, DTT 0.5 mM, CaCl2 1 mM, MgCl2 1 mM, calmodulin 50 nM, [^14C] arginine 100 μM) in a final volume of 100 μl and the reaction was initiated by addition of eNOS (eNOS 3.3. U/reaction, Alexis Biochemicals). Reactions were incubated for 1 h at 37° C. and the reaction was terminated by the addition of Dowex pH 5.5 (0.85 ml) to each tube. Tubes were vortexed and microfuged <12000 g, 5 min. 100 μl of the Dowex supernatant was added to 5 ml scintillation cocktail and was counted in a scintillation counter (Hewlett Packard). The compounds were tested at 1 mM and 0.1 mM concentrations. Activity is expressed as % of control where control contained no inhibitor, n=4. The DDAH inhibitors of the present invention tested had no significant effect on eNOS activity.
# [3] = In vivo study: serum dimethylarginine levels after i.v. bolus; design: species or system Male Wistar rats; conditions: 4 hours after 60 mg/kg i.v. bolus, control 1.81 ± 0.23
# Protocol: Male Wistar rats (250-300 g; Charles River, Margate, Kent, UK) were anaesthetised using Isoflurane. The jugular vein was cannulated. Animals were injected intravenously with a bolus dose of inhibitor (60 mg/kg) or saline. Anaesthesia was maintained for 4 hours at the end of which blood was obtained via cardiac puncture for the determination of serum dimethylarginine levels. [All animals received care in compliance with The British Home Office Regulations and Principles of Laboratory Animal Care. (Project licenses PPL/5344, PPL/4824, PPL 70/5580)]
# SDMA is not a substrate for DDAH and the levels of SDMA would be expected to be the same of the treated and the control animals, and this was the case. Since there is a great deal of variability of the “normal” ADMA and SDMA level, it is useful to measure the ratio of ADMA and SDMA in each animal to provide a reliable indicator of the relative changes of these to substances.
# iNOS = molecular target: T2, iNOS (Mus musculus, UniProt P29477); experiment: iNOS activity Greiss assay in stimulated RAW cells; format: cell-based; conditions: Griess NOx, RAW cells stimulated 24 h with LPS/IFN and TNF, compound 0.5 mM, 550 nm; control 0.367 ± 0.021
# T2 construct: endogenous in cells; host or cells: RAW cells stimulated with LPS/IFN and TNF
# Protocol: RAW cells were stimulated for 24 h with LPS/IFN and TNF, in the presence of the DDAH inhibitor compounds (0.5 mM). Levels of NOx secreted into the media by the cells were determined by Griess assay: Greiss reagent [1:1 sulfanilamide ([…]) in ortho-phosphoric acid (50%) and N-(1-napthyl)ethylenediamine dihydrochloride (1%)] was added as 100 μl volume to 100 μl cell culture media and the plate was read at 550 nm and analysed in relation to sodium nitrite and nitrate standards.
# [4] = system: zymosan-induced peritonitis; experiment: Zymosan-induced peritonitis, TO mice; format: in vivo; conditions: for cells 10^6/ml (individual animals 1-6): 60 mg/kg iv −30 min, +2 hrs, taken off at 4 hrs, listed as SR291, 60 mg/kg
# Protocol: (§1) The effects of a DDAH inhibitor on zymosan-induced peritonitis were tested in two different strains of mice. C57/Blk6 or TO mice, male 8-10 weeks were placed in a heat box for 10 mins at 38° C., and treated with 60 mg/kg of SR291 [NA-(2-methoxyethyl)-L-arginine methyl ester] i.v. 30 mins later they were given 1 mg of zymosan i.p. A second dose of SR291 (60 mg/kg) was administered 2 h later and after 4 h mice were anesthetised with isofluorane and blood withdrawn by cardiac puncture. Mice were sacrificed and had 2 mls of ice cold PBS injected into their peritoneal cavity, the cavity was then gently massaged and cut open, the peritoneal washout was harvested and put on ice. Blood was spun down at 400 g, 10 mins at 4° C. The cells were spun at 4000 rpm for 5 mins at 4° C. Plasma was removed from the blood and frozen at −80° C. The exudates from the washout were removed and frozen at −80° C., the cell pellet was resuspended in 1 ml ice cold PBS and were counted on a haemocytometer. The cells were spun as before, the supernatant discarded and the cells frozen at −80° C. Polymorphonuclear (PMN) cell infiltrate into the peritoneal cavity was used to measure inflammation. […] Taken off at 4 hrs. […] Taken off at 4 hrs.
# [5] = Endotoxin-induced fall in systemic blood pressure in anaesthetized rat; format: in vivo; conditions: endotoxin 40 mg/kg, infusion 30 mg/kg/hr
# Protocol: Effects of intervention after 2-3 hours (when blood pressure had fallen to 80% of baseline pre LPS blood pressure) with 30 mg/kg/hr infusion of SR291; Injection of endotoxin (40 mg/kg) into rats caused a progressive fall in systemic BP. The decline was halted by infusion of 30 mg/kg/hr SR291.
# [6] = system: zymosan-induced peritonitis; experiment: Zymosan-induced peritonitis, C57/Blk6 mice; format: in vivo
# Protocol: as §1
SMILES,endotoxin-induced hyporeactivity to vasoconstrictors (rat aortic rings [1]),inhibition at 1000 µM (DDAH),endotoxin-induced increase in NO (nitrite and nitrate) (rat aortic rings [2]),"OD units drug ± sd (RAW cells; MTT, RAW cells, compound 0.5 mM, 24 h, OD550 nm, control 2.54 ± 0.26)",% of control ± sd (eNOS; 0.1 mM compound),% of control ± sd (eNOS; 1 mM compound),ADMA:SDMA ± sd [3],OD units drug ± sd (iNOS),"cells 10^6/ml (individual animals 1-6) ([4]; TO mice male 8-10 weeks, first study)","cells 10^6/ml (individual animals 1-6) ([4]; TO mice, second study)","cells 10^6/ml, mean ([4]; cumulative of Table 9 dataset, saline 4.783333)","cells 10^6/ml, mean ([4]; cumulative of Table 11 dataset, saline 6.125)","cells 10^6/ml, mean ([4]; cumulative of the two datasets of Tables 9 and 11, saline 5.454167)",progressive fall in systemic BP [5],"cells million/ml (peritoneal washout, individual animals 1-5) ([6]; C57 male 8-10 weeks, 60 mg/kg iv −30 min, taken off at 4 hrs, listed as SR291, 60 mg/kg)","cells 10^6/ml, mean ([6]; combination of two datasets for the C57 mice, saline 6.7455)","cells million/ml, mean ([6]; cumulative of Table 6 dataset, saline 9.1)","PMN infiltrate into the peritoneal cavity ([6]; three separate experiments, 8-12 mice each, C57/Blk6 or TO mice, 60 mg/kg i.v.)",OD units drug ± sd (RAW cells)
"COCCN=C(N)NCCCC(N)C(=O)O [Example 21, N^G-(2-methoxyethyl)-L-arginine]",reversed dose dependently,100%,prevented,2.15 ± 0.13 OD units,96.84 ± 30.49 [2] % of control,84.81 ± 22.74 [4] % of control,3.50 ± 0.48,0.326 ± 0.014 OD units,,,,,,,,,,,
"COCCN=C(N)NCCCC(N)C(=O)OC [Example 28, N^G-(2-Methoxyethyl)-L-arginine methyl ester]",reversed dose dependently,83%,prevented,,120.8 ± 17.80 [2] % of control,112.5 ± 27.47 [4] % of control,2.73 ± 0.44,0.325 ± 0.009 OD units,3.05 10^6/ml and 3.35 10^6/ml and 3.2 10^6/ml and 1.4 10^6/ml and 3.9 10^6/ml and 4.3 10^6/ml,4.3 10^6/ml (2×) and 4.6 10^6/ml and 4.85 10^6/ml and 5.2 10^6/ml and 3.9 10^6/ml,3.2 10^6/ml,4.525 10^6/ml,3.8625 10^6/ml,halted,3 million/ml and 4 million/ml and 4.5 million/ml and 6.5 million/ml and 9 million/ml,4.2 10^6/ml,5.4 million/ml,significantly reduced,2.41 ± 0.10 OD units
